The source of these data is US11180495B2 (Abbisko Therapeutics Co., Ltd., priority 2017, dated 2021).

Each structure is given as a SMILES string.

One experiment addresses T1, CSF-1R (Homo sapiens, UniProt P07333).
T1 construct: 3.95 nM of CSF-1R, 500 μM of ATP and 0.2 mg/mL of polypeptide
Description: CSF-1R in vitro biochemical kinase study (ADP-Glo assay). The conditions noted are these: 3.95 nM CSF-1R, 500 μM ATP, 30° C. 60 min, read-out: Enzymatic experiment CSF-1R IC50. The protocol:
In the present invention, the inhibitory activity of compounds against the CSF-1R activity was determined by using CSF-1R ADP-Glo assay. The compound-mediated inhibition effect was achieved by inhibiting the production of ADP from consumption of ATP, and the activities of compounds were evaluated by using the ADP-Glo kit (Promega, cat. No. V9101). The specific experimental process was as follows: • 1. The kinase reaction performed in the present invention was carried out in a 384-well plate (Perkinelmer, cat. No. 6007290), and 3.95 nM of CSF-1R, 500 μM of ATP and 0.2 mg/mL of polypeptide (Poly (Glu4, Try1), Sigma, cat. No. P0275) were respectively weighed and added to each well: • 2. following reagents were then added to each well to reach the final reaction system: 40 mM Tris, pH 7.5, 20 mM MgCl2, 0.01% Triton X-100, 0.1 mg/mL BSA, 2.5 mM DTT and 0.1% DMSO; • 3. the reaction was conducted at 30° C. for 60 min; • 4. then an equal volume of stop solution (ADP-Glo) was added to the kinase reaction system; • 5. the mixed solution was incubated at 25° C. for 60 min, and the kinase reaction was then terminated; • 6. a two-fold volume of detection reagent was then added to each well; • 7. the mixed solution was incubated at 25° C. for 30 min; • 8. the compound IC50 value was measured by using a plate reader (Tecan, M1000) and a four-parameter curve was generated in Graphpad Prism. B. KIT/PDGFRA In Vitro Biochemical Kinase Study • 1. Preparation of 1-fold kinase buffer and stop solution • 1.1 1-fold kinase buffer: 50 mM HEPES, pH 7.5, 0.0015% Brij-35. • 1.2 stop solution: 100 mM HEPES, pH 7.5, 0.015% Brij-35, 0.2% Coating Reagent #3 50 mM EDTA • 2. Preparation of compound solution • 2.1 Dilution of compound solution • 1) The final concentration of the compound solution was 40 μM. and the concentration of the prepared stock solution was 50 times of the final concentration, i.e., 2 mM. • 2) 80 μL of 100% DMSO was added to the second well of the 96-well plate, then 20 μL of 10 mM compound solution was added, and thereby 2 mM compound solution was prepared, 60 μL of 100% DMSO was added to other wells, 20 μL of compound was taken from the second well, added to the third well and diluted by 4 times. This serial 4-time dilution was conducted in sequence for the total of 10 concentrations. • 2.2 5-fold compound solution transferred to a reaction plate • 1) 10 μL of solution was taken from each well of the above 96-well plate and added to another 96-well plate, and 90 μL of kinase buffer was added. • 2) 5 μL of solution was taken from the above 96-well plate and added to a 384-well reaction plate. • 2.3 Kinase reaction • 1) KIT/PDGFRA kinase was added to the 1-fold kinase buffer solution to obtain a 2.5-fold kinase solution. • 2) FAM-labeled polypeptide and ATP were added to the 1-fold kinase buffer solution to obtain a 2.5-fold substrate solution. • 3) 10 μL of 2.5-fold kinase solution was added to the 384-well reaction plate, which already contained 5 μL of 5-fold compound in 10% DMSO. And the mixed solution was incubated at room temperature for 10 min. • 4) 10 μL of 2.5-fold substrate solution was added to the 384-well reaction plate. • 5) Kinase reaction and termination: the mixed solution was incubated at 28° C. for a certain period of time, and 25 μL of stop solution was added to stop the reaction. • 2.4 Data reading of Caliper EZ Reader II • 2.5 Calculation of percent inhibition and IC50 • 1) Percent conversion data were copied from the Caliper EZ Reader. • 2) Percent conversion was converted into percent inhibition data, wherein, max referred to percent conversion of the DMSO control, and min referred to percent conversion of the negative control without kinase activity. Percent inhibition=(max−conversion)/(max−min)*100. • 3) The IC50 value was fitted with XLFit excel add-in version 5.4.0.8: Fitting formula: Y=Bottom+(Top−Bottom)/(1+(IC50/X)^HillSlope).
In general terms: In ADP-Glo the light output rises with the ADP produced.

Another experiment has as its target KIT (Homo sapiens, UniProt P10721). Kind of experiment: KIT in vitro biochemical kinase study (Caliper EZ Reader). Particulars: FAM-labeled polypeptide, Caliper EZ Reader II; read-out: Enzymatic experiment KIT IC50. How it is done: (§1) In the present invention, the inhibitory activity of compounds against the CSF-1R activity was determined by using CSF-1R ADP-Glo assay. The compound-mediated inhibition effect was achieved by inhibiting the production of ADP from consumption of ATP, and the activities of compounds were evaluated by using the ADP-Glo kit (Promega, cat. No. V9101). The specific experimental process was as follows: • 1. The kinase reaction performed in the present invention was carried out in a 384-well plate (Perkinelmer, cat. No. 6007290), and 3.95 nM of CSF-1R, 500 μM of ATP and 0.2 mg/mL of polypeptide (Poly (Glu4, Try1), Sigma, cat. No. P0275) were respectively weighed and added to each well: • 2. following reagents were then added to each well to reach the final reaction system: 40 mM Tris, pH 7.5, 20 mM MgCl2, 0.01% Triton X-100, 0.1 mg/mL BSA, 2.5 mM DTT and 0.1% DMSO; • 3. the reaction was conducted at 30° C. for 60 min; • 4. then an equal volume of stop solution (ADP-Glo) was added to the kinase reaction system; • 5. the mixed solution was incubated at 25° C. for 60 min, and the kinase reaction was then terminated; • 6. a two-fold volume of detection reagent was then added to each well; • 7. the mixed solution was incubated at 25° C. for 30 min; • 8. the compound IC50 value was measured by using a plate reader (Tecan, M1000) and a four-parameter curve was generated in Graphpad Prism. B. KIT/PDGFRA In Vitro Biochemical Kinase Study • 1. Preparation of 1-fold kinase buffer and stop solution • 1.1 1-fold kinase buffer: 50 mM HEPES, pH 7.5, 0.0015% Brij-35. • 1.2 stop solution: 100 mM HEPES, pH 7.5, 0.015% Brij-35, 0.2% Coating Reagent #3 50 mM EDTA • 2. Preparation of compound solution • 2.1 Dilution of compound solution • 1) The final concentration of the compound solution was 40 μM. and the concentration of the prepared stock solution was 50 times of the final concentration, i.e., 2 mM. • 2) 80 μL of 100% DMSO was added to the second well of the 96-well plate, then 20 μL of 10 mM compound solution was added, and thereby 2 mM compound solution was prepared, 60 μL of 100% DMSO was added to other wells, 20 μL of compound was taken from the second well, added to the third well and diluted by 4 times. […]

The target of a further experiment is PDGFRA (Homo sapiens, UniProt P16234). Kind of experiment: PDGFRA in vitro biochemical kinase study (Caliper EZ Reader). The conditions noted are these: FAM-labeled polypeptide, Caliper EZ Reader II; read-out: Enzymatic experiment PDGFRA IC50. How it is done: as §1
Chain of PDGFRA (P16234 24-1089): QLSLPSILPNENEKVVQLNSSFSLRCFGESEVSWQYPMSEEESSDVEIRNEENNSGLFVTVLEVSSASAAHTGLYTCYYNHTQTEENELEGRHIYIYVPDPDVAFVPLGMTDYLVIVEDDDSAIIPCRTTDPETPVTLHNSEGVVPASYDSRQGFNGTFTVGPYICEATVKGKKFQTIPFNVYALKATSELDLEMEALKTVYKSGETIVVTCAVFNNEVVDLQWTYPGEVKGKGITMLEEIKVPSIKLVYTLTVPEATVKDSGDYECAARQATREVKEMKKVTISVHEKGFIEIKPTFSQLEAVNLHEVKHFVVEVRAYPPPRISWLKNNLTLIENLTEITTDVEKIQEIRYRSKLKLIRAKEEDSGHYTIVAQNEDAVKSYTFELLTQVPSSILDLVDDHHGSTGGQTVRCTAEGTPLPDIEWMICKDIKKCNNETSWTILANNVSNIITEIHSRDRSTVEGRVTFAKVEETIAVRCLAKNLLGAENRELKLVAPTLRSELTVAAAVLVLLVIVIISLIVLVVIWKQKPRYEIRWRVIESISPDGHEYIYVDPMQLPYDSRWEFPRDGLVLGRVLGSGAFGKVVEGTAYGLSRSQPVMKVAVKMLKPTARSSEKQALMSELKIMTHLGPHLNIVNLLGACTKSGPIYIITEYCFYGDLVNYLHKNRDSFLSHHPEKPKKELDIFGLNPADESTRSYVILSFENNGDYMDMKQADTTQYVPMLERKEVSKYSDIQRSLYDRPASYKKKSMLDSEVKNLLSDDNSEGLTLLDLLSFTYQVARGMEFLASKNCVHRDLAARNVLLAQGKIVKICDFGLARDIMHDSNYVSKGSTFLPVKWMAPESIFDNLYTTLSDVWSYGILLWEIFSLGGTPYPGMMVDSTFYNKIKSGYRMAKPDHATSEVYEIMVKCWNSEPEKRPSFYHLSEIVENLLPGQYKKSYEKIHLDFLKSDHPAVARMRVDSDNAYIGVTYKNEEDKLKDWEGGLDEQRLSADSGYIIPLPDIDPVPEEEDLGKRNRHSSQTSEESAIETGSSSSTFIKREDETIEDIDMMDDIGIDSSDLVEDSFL

T1 sequence (P07333 20-972): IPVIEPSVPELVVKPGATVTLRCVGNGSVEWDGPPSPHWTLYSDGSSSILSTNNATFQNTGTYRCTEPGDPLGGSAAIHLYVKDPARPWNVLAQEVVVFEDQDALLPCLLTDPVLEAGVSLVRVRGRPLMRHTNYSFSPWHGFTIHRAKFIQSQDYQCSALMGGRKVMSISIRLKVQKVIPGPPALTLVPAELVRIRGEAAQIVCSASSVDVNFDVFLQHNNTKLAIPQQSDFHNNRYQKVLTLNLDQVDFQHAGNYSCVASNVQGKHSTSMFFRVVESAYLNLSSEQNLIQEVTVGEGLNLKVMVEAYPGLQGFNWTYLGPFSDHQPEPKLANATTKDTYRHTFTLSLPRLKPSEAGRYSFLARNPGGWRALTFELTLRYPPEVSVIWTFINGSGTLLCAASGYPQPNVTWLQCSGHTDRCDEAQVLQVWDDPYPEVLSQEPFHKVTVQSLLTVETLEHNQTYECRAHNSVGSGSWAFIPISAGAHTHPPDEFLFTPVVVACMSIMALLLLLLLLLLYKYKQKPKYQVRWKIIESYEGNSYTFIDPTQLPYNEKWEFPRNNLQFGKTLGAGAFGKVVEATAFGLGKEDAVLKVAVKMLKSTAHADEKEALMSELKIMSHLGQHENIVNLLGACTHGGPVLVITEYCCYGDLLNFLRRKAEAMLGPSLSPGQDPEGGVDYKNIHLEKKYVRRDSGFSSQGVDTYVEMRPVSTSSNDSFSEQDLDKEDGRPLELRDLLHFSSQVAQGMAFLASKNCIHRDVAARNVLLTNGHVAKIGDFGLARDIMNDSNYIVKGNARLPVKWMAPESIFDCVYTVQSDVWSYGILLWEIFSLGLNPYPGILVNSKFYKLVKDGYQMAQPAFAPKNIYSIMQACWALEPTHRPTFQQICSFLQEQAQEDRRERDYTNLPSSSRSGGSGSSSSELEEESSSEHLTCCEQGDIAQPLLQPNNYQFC
Chain of KIT (P10721 26-976): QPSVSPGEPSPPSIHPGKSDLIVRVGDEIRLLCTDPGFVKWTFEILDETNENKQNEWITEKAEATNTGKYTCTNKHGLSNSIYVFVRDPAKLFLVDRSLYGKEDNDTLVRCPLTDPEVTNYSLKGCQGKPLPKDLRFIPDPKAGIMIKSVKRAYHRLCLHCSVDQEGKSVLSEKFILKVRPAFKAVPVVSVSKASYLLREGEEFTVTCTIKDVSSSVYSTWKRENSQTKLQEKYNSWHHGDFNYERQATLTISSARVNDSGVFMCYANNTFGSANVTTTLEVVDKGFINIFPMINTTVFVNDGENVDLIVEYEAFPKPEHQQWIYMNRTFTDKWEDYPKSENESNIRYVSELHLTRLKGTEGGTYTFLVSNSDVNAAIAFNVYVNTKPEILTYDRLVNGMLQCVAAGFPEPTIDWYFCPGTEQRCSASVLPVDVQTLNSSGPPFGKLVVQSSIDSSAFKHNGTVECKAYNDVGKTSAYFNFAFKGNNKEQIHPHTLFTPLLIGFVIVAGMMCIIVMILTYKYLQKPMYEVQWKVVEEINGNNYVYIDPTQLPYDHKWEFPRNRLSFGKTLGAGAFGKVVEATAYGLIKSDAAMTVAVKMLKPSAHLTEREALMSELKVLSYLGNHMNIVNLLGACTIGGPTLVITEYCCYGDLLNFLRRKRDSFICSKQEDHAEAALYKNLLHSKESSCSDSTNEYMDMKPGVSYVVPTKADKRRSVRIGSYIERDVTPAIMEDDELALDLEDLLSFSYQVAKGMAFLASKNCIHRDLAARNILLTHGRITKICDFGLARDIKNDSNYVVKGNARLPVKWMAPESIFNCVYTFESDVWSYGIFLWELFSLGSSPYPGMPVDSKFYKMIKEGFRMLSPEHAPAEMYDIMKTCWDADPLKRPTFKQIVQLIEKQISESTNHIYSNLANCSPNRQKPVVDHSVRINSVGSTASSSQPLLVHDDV

Consider `Cc1nc(-c2cnc(NC(C)C)[nH]c2=O)ccc1Cc1c[nH]c2ncc(F)cc12` [Example 5, 5-(5-((5-fluoro-1H-pyrrolo[2,3-b]pyridin-3-yl)methyl)-6-methylpyridin-2-yl)-2-(isopropylamino)pyrimidin-4(3H)-one], for which the IC50 (as a rule, the concentration needed to halve the response being measured) at CSF-1R turned out to be 45.9 nM; at KIT it was 222 nM; at PDGFRA it was 9270 nM.
For `Cc1nc(-c2cnc(NC(C)C)n(C)c2=O)ccc1Cc1c[nH]c2ncccc12` [Example 7, 5-(5-((1H-pyrrolo[2,3-b]pyridin-3-yl)methyl)-6-methylpyridin-2-yl)-2-(isopropylamino)-3-methylpyrimidin-4(3H)-one] the same measures were 36.7 nM, 50.8 nM and 998 nM.
For the compound `Cc1nc(-c2cnc3n(c2=O)CCCN3C)ccc1Cc1c[nH]c2ncc(Cl)cc12` [Example 13, 3-(5-((5-chloro-1H-pyrrolo[2,3-b]pyridin-3-yl)methyl)-6-methylpyridin-2-yl)-9-methyl-6,7,8,9-tetrahydro-4H-pyrimido[1,2-a]pyrimidin-4-one], the half-maximal inhibitory concentration (IC50) at CSF-1R was determined as 65.6 nM.
The same measure, in the same setting: in the case of `Cc1nc(-c2cnc3n(c2=O)CCCN3C)ccc1Cc1c[nH]c2ncccc12` [Example 14, 3-(5-((1H-pyrrolo[2,3-b]pyridin-3-yl)methyl)-6-methylpyridin-2-yl)-9-methyl-6,7,8,9-tetrahydro-4H-pyrimido[1,2-a]pyrimidin-4-one] it was 55.2 nM.
The same measure, in the same setting: in the case of `Cc1nc(-c2cnc3n(c2=O)CCC(C)N3C)ccc1Cc1c[nH]c2ncc(Cl)cc12` (stereo not shown) [Example 15, 3-(5-((5-chloro-1H-pyrrolo[2,3-b]pyridin-3-yl)methyl)-6-methylpyridin-2-yl)-8,9-dimethyl-6,7,8,9-tetrahydro-4H-pyrimido[1,2-a]pyrimidin-4-one] it was 49.5 nM.
Same read-out and setting: in the case of `CCN1CCCn2c1ncc(-c1ccc(Cc3c[nH]c4ncc(Cl)cc34)c(C)n1)c2=O` [Example 16, 3-(5-((5-chloro-1H-pyrrolo[2,3-b]pyridin-3-yl)methyl)-6-methylpyridin-2-yl)-9-ethyl-6,7,8,9-tetrahydro-4H-pyrimido[1,2-a]pyrimidin-4-one] it was 45.6 nM.
Take `CCN1CCCn2c1ncc(-c1ccc(Cc3c[nH]c4ncc(-c5cnn(C)c5)cc34)c(C)n1)c2=O` [Example 17]: the IC50 at CSF-1R was 5.35 nM.
Still for that read-out and setting: as for `Cc1nc(-c2cnc3n(c2=O)CCCN3C)ccc1Cc1c[nH]c2ncc(-c3cnn(C)c3)cc12` [Example 18, 9-methyl-3-(6-methyl-5-((5-(1-methyl-1H-pyrazol-4-yl)-1H-pyrrolo[2,3-b]pyridin-3-yl)methyl)pyridin-2-yl)-6,7,8,9-tetrahydro-4H-pyrimido[1,2-a]pyrimidin-4-one], the figure is 4.34 nM.
As for `Cc1nc(-c2cnc3n(c2=O)CCCN3C)ccc1Cc1c[nH]c2ncc(F)cc12` [Example 20, 3-(5-((5-fluoro-1H-pyrrolo[2,3-b]pyridin-3-yl)methyl)-6-methylpyridin-2-yl)-9-methyl-6,7,8,9-tetrahydro-4H-pyrimido[1,2-a]pyrimidin-4-one], the concentration for half-maximal inhibition (IC50) on CSF-1R was 46.1 nM.
Same read-out and setting: in the case of `Cc1cnc2[nH]cc(Cc3ccc(-c4cnc5n(c4=O)CCCN5C)nc3C)c2c1` [Example 21, 9-methyl-3-(6-methyl-5-((5-methyl-1H-pyrrolo[2,3-b]pyridin-3-yl)methyl)pyridin-2-yl)-6,7,8,9-tetrahydro-4H-pyrimido[1,2-a]pyrimidin-4-one] it was 96.3 nM; in that of `COc1cnc2[nH]cc(Cc3ccc(-c4cnc5n(c4=O)CCCN5C)nc3C)c2c1` [Example 22, 3-(5-((5-methoxy-1H-pyrrolo[2,3-b]pyridin-3-yl)methyl)-6-methylpyridin-2-yl)-9-methyl-6,7,8,9-tetrahydro-4H-pyrimido[1,2-a]pyrimidin-4-one], 43.5 nM.
The same measure, in the same setting: in the case of `Cc1nc(-c2cnc3n(c2=O)CCCN3C)ccc1Cc1c[nH]c2ncc(O)cc12` [Example 23] it was 38.9 nM.
